Test results taken from US7795307B2, “Carbamoyl esters that inhibit cholinesterase and release pharmacologically active agents” (priority 2003, dated 2010).

Columns and labels:
[1] = biological target: human recombinant acetylcholinesterase (Homo sapiens, UniProt P22303); assay: biochemical; details: 25° C., 30 minutes preincubation, 0.3 mM acetylthiocholine, Dixon plot
[2] = system: total cholinesterase activity in the brain; assay: Total cholinesterase activity in brain homogenate of rats after i.p. injection; assay type: in vivo, Male Wistar rats; details: for ChE inhibition: brain 3 hours after injection, relative to saline treated rats; for tolerability of the injected dose: i.p., male Wistar rats, dose giving a cholinergic behavioral effect with minimal side effects
Protocol: Animals were decapitated 3 hours after injection and the brains rapidly removed. The brain tissue was diced into small pieces, placed on ice and immediately homogenized with a Polytron PT1200 (Kinematic AG) in 10 ml ice cold Tris with 0.1% Triton-X and protease inhibitors. The protease inhibitors in the extraction buffer were Antipain (10 μM), Aprotinin (5 TIU/mg protein), Bestatin ([…]), Leupeptin (10 μM) and Pepstatin (1 μM). The final dilution of the homogenate in the final assay mixture was 120-fold.
Total cholinesterase activity was determined by a modification of the colorimetric method of Ellmann, et al. (Biochem. Pharmacol., 7:88-95 (1961)), as described above. Hydrolysis of acetylthiocholine was monitored indirectly by measurement of the formation of the conjugate between thiocholine and DTNB. Optical density at 405 nm was recorded during five (5) minutes employinga a microplate spectrophotometer (Polarstar, BMG Labtech), and plotted against time. The initial rates were calculated from the slope of the linear portion of the graph.
Cholinesterase activity was normalized for protein content of the homogenate. Relative cholinesterase activity was calculated as the ratio of normalized cholinesterase activity in a rat treated with a control compound or a carbamoyl ester over normalized cholinesterase activity in saline treated rats.

Sequence of human recombinant acetylcholinesterase (P22303 32-614): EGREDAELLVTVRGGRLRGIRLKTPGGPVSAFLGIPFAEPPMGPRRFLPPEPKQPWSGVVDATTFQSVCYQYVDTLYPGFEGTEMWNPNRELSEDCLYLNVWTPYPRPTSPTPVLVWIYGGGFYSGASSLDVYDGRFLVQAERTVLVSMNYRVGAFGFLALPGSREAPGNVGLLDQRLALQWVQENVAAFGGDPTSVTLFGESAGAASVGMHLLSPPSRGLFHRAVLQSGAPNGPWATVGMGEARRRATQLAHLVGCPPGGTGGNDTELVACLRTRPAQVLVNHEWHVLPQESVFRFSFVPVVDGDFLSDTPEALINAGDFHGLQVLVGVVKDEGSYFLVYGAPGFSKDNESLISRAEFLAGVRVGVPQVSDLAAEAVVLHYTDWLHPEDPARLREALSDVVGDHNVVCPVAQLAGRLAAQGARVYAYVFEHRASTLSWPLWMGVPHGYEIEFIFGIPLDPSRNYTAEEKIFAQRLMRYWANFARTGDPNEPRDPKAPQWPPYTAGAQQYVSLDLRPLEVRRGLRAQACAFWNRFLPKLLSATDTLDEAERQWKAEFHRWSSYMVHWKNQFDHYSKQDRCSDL

| Compound | IC50 [1] [nM] | tolerability of the injected dose [2] | further results |
| --- | --- | --- | --- |
| Cc1ccccc1O[C@H](CCN(C)C(=O)Oc1cccc([C@H](C)N(C)C)c1)c1ccccc1 [Compound 5] | 460 | – | – |
| C[C@H](Cc1ccccc1)N(C)C(=O)Oc1cccc([C@H](C)N(C)C)c1 [Compound 7] | – | well-tolerated | ChE inhibition ([2]; 2 mg/kg i.p.): 38% |
| C[C@H](Cc1ccccc1)NC(=O)Oc1cccc([C@H](C)N(C)C)c1 [Compound 9] | – | well-tolerated | ChE inhibition ([2]; 8 mg/kg i.p.): 41% |
| C[C@H](Cc1ccccc1)N(C)C(=O)Oc1ccc2c(c1)[C@]1(C)CCN(C)[C@@H]1N2C [Compound 13] | 5440 | – | – |
| C[C@H](Cc1ccccc1)NC(=O)Oc1ccc2c(c1)[C@]1(C)CCN(C)[C@@H]1N2C [Compound 14] | 253 | – | – |
| C[C@@H](Cc1ccccc1)NC(=O)Oc1cccc([C@H](C)N(C)C)c1 [Compound 20] | 449 | – | – |
| CCN(C)C(=O)Oc1cccc([C@H](C)N(C)C)c1 [Rivastigmine, reference compound] | – | well-tolerated | – |
